# Measured values as given in US10561619B2, “Pharmaceutical composition comprising dutasteride and propylene glycol monolaurate and preparation method of the same” (Yuyu Pharma, Inc., priority 2015, dated 2020).
# Assays:
# [1] = Stability of dutasteride depending on oil type (degradation products); format: physicochemical
# Protocol: In Test Example 2, in order to identify the stability of dutasteride in oil, the oil and dutasteride are mixed at a ratio of about 10 to 1, and then a stability test is carried out under an accelerated and stress condition, and a percentage of generated unknown degradation products with respect to the active ingredient is calculated to confirm whether degradation products are generated or not.
# In order to identify the stability of dutasteride in mono- and di-glyceride of caprylic/capric acid used as an oil phase of AVODART®, an existing commercially-available formulation, the stability of dutasteride was compared under the stress condition (50° C., 95% RH) and the accelerated condition (40° C., 75% RH). In the comparison test, a sample prepared by dissolving 1.0 mg of dutasteride in 10.0 mg of propylene glycol monocaprylate and stored in a transparent vial and a sample prepared by dissolving 1.0 mg of dutasteride in 10.0 mg of mono- and di-glyceride of caprylic/capric acid and stored in a transparent vial were used.
# [2] = Evaluation of oil solubility of dutasteride; format: physicochemical; conditions: for solubility at 24 h: oil or lipid, thermodynamic from solid
# Protocol: In order to measure the solubility of dutasteride in oil, the solubility of dutasteride in glycerol tricaprylate, glycerol tricaprylate/caprate, glycerol tricaprylate/caprate/linoleate, propylene glycol dicaprylocaprate, propylene glycol dicaprate, propylene glycol dicaprylate and propylene glycol monolaurate was measured. In a 10 mL vial, a magnetic bar was placed. After 3 mL of the oil was added thereto, approximately 100 mg of dutasteride was added thereto while stirring under a room temperature (25° C.) condition, and the resultant mixture was stirred at 500 rpm or higher. After stirring for 24 hours, 1 mL of the resultant mixture was taken and separated using a centrifuge, and only a supernatant was taken to quantify an amount of dutasteride dissolved in the oil using liquid chromatography.
smiles,measurement,setting,value
"C[C@]12C=CC(=O)N[C@@H]1CC[C@@H]1[C@@H]2CC[C@]2(C)[C@@H](C(=O)Nc3cc(C(F)(F)F)ccc3C(F)(F)F)CC[C@@H]12 [dutasteride, 17β-N-(2,5-bis(trifluoromethyl))phenylcarbamoyl-4-aza-5α-androst-1-en-3-one]",percentage of degradation products with respect to dutasteride,"[1]; in mono- and di-glyceride of caprylic/capric acid, stress condition (50° C., 95% RH), Week 1",None
same,percentage of degradation products with respect to dutasteride,"[1]; in mono- and di-glyceride of caprylic/capric acid, stress condition (50° C., 95% RH), Week 2",None
same,percentage of degradation products with respect to dutasteride,"[1]; in mono- and di-glyceride of caprylic/capric acid, stress condition (50° C., 95% RH), Week 3",None
same,percentage of degradation products with respect to dutasteride,"[1]; in propylene glycol monolaurate, accelerated condition (40° C., 75% RH), Week 4",not generated and None
same,percentage of degradation products with respect to dutasteride,"[1]; in propylene glycol monolaurate, stress condition (50° C., 95% RH), Week 1",None
same,percentage of degradation products with respect to dutasteride,"[1]; in propylene glycol monolaurate, stress condition (50° C., 95% RH), Week 2",None
same,percentage of degradation products with respect to dutasteride,"[1]; in propylene glycol monolaurate, stress condition (50° C., 95% RH), Week 3",None
same,solubility at 24 h,"[2]; glycerol tricaprylate (oil), in glycerol tricaprylate, 25° C., stirring 24 hours",840 µg/mL
same,solubility at 24 h,"[2]; glycerol tricaprylate/caprate/linoleate (oil), in glycerol tricaprylate/caprate/linoleate, 25° C., stirring 24 hours",220 µg/mL
same,Solubility,"[2]; in glycerol tricaprylate/caprate, 25° C., stirring 24 hours",810 µg/mL
same,solubility at 24 h,"[2]; propylene glycol dicaprylocaprate (oil), in propylene glycol dicaprylroccaprate, 25° C., stirring 24 hours",970 µg/mL
same,higher solubility in propylene glycol monolaurate compared to other tested oils,[2]; propylene glycol monolaurate vs other tested oils,≥ 10 times
